Patent publication US4616020A, “Medicaments, vicinal dihydroxyalkylxanthines contained therein, processes for the preparation of these xanthine compounds and intermediate products suitable for these” (Hoechst Aktiengesellschaft, priority 1981, dated 1986)
Where two headings read alike, the source gives them in different places.

How the values were obtained:
[1] = cited from earlier work; for side-effects: background statement
[2] = system: NMRI mice; conditions: mouse, i.v.; according to German Offenlegungsschrift 2,716,402; 10080 min; cited from earlier work
[3] = background statement; cited from earlier work
[4] = system: central nervous system; conditions: according to German Offenlegungsschrift No. 2,716,402; markedly less than theophylline; cited from earlier work
[5] = system: acetylcholine-induced bronchospasm; assay: Bronchospasmolytic activity (Konzett-Rossler): inhibition of acetylcholine-induced bronchospasm in guinea-pigs; type: in vivo; conditions: Cavia porcellus, guinea-pig, urethane anaesthesia, read-out: Bronchospasmolytic effect (ED50) compared to acetylcholine
Method: (§1) The test substances were administered in aqueous solution either intravenously (i.v.) or intraduodenally (i.d.). The ED50 values, which represent that dose in mg/kg at which the experimentally produced spasm is decreased by one half compared to that in untreated animals, were determined graphically from the dose-activity curves.

[6] = background statement; cited from earlier work; remark: listed apart in the source
[7] = Ratio of LD50 to ED50; type: in vivo, mouse (LD50); guinea-pigs (ED50)
Method: as §1
(§2) Determination of the LD50 values was by the standard method of the mortality occurring within 7 days among NMRI mice after a single intravenous (i.v.), intraperitoneal (i.p.) or oral (p.o.) administration.

[8] = system: serotonine-induced bronchospasm; assay: Bronchospasmolytic activity (Konzett-Rossler): inhibition of serotonine-induced bronchospasm in guinea-pigs; type: in vivo; conditions: Cavia porcellus, guinea-pig, urethane anaesthesia, read-out: Bronchospasmolytic effect (ED50) compared to serotonine
Method: as §1

[9] = system: histamine-induced bronchospasm; assay: Bronchospasmolytic activity (Konzett-Rossler): inhibition of histamine-induced bronchospasm in guinea-pigs; type: in vivo; conditions: Cavia porcellus, guinea-pig, urethane anaesthesia, read-out: Bronchospasmolytic effect (ED50) compared to histamine
Method: as §1

[10] = Acute toxicity, mortality within 7 days among NMRI mice after single administration; conditions: in vivo, mouse
From the text: as §2
*determined by the method of Litchfield and Wilcoxon (J. Pharmacol. exp.

[11] = system: bronchospasm induced with bradykinin; assay: Inhibitory effect on bronchospasm induced in guinea-pigs with bradykinin; type: in vivo; conditions: for ED50: Cavia porcellus, guinea-pigs, read-out: ED50, bronchospasm induced with bradykinin
From the text: Since it is regarded as proven that, apart from the biogenic amines, acetylcholine, histamine and serotonine, listed in Table 4, bradykinin also plays an important part as a mediator substance in the provocation of asthma attacks, the inhibitory effect on the bronchospasm induced in guinea-pigs with bradykinin was investigated.

[12] = system: central nervous system; set-up: species or system mice; conditions: mouse, in vivo, po, 50 mg/kg
Method: In contrast, the compounds of the formula I according to the invention have no component stimulating the central nervous system, but, on the contrary, exert a slight depressant effect on the central nervous system which is assessed to be particularly advantageous from the therapeutic point of view. Thus, the spontaneous motility of mice, for example, is decreased by 53% for a period of 11 hours after oral administration of 50 mg/kg of the compound from Example 1.

[13] = system: bronchospastic reactions induced with aerosols of acetylcholine, histamine and ascaris extract; assay: Pulmonary function test on the anaesthetized dog: inhibition of bronchospastic reactions induced with aerosols of acetylcholine, histamine and ascaris extract; type: in vivo; conditions: 12 mg/kg i.v.
[14] = LD50 i.v. mouse from German Offenlegungsschrift 2,716,402, ED50 i.v. guinea-pig
[15] = LD50 i.v. mouse, ED50 i.v. guinea-pig
[16] = LD50 i.p. mouse, ED50 i.v. guinea-pig

Compound | ED50 ([5]; iv) | ED50 ([8]; iv) | ED50 ([9]; iv) | LD50 at 168 h ([10]; iv) | ratio of LD50 to ED50 (head is drawing 107) [7, 15] | further results
CCCn1c(=O)c2c(ncn2CC(O)CO)n(CCC)c1=O (stereo not drawn) [7-(2,3-dihydroxypropyl)-1,3-dipropylxanthine] | > 10 mg/kg | 10 mg/kg | 6.5 mg/kg |  |  | acute toxicity compared to theophylline ([1]; German Offenlegungsschrift No. 2,716,402): lower acute toxicity; side-effects [1]: fewer disadvantageous side-effects; Toxicity LD50 [2]: 287 mg/kg; bronchospasmolytic activity compared to theophylline [3]: almost to reach the bronchospasmolytic activity of theophylline; stimulation of the central nervous system [4]: stimulation of the central nervous system; water solubility [6]: readily soluble in water; ratio of LD50 to ED50 (head is drawing 107) [7, 14]: < 32
Cn1c(=O)c2c(ncn2CC(O)CO)n(C)c1=O (stereo not drawn) [Diphylline, 7-(2,3-dihydroxypropyl)-1,3-dimethylxanthine] | > 30 mg/kg | > 30 mg/kg | > 30 mg/kg |  |  | side-effects [1]: much less pronounced; Toxicity LD50 [2]: 886 mg/kg; bronchospasmolytic activity compared to theophylline [3]: drastic decrease in the bronchospasmolytic activity; stimulation of the central nervous system [4]: stimulation of the central nervous system; water solubility [6]: good water solubility; ratio of LD50 to ED50 (head is drawing 107) [7, 14]: < 30
CCCn1c(=O)c2c(ncn2CCCCC(O)CO)n(CC)c1=O (stereo not drawn) [Example 1, 3-Ethyl-7-(5,6-dihydroxyhexyl)-1-propylxanthine] | 2 mg/kg | 0.3 mg/kg | 0.2 mg/kg | 254 mg/kg | 305 | LD50 at 168 h ([10]; po): 1450 mg/kg; ED50 ([11]; iv): 1 to 3 mg/kg; ED50 ([11]; i.d.): 4 to 6.3 mg/kg; times more effective than theophylline-ethylenediamine, bradykinin bronchospasm ([11]; i.d.): about 6 times; times more effective than theophylline-ethylenediamine, bradykinin bronchospasm ([11]; i.v.): about 3 times; decrease in spontaneous motility [12]: 53%; ED50 ([5]; i.d. (intraduodenal)): 6.3 mg/kg; ratio of LD50 to ED50 (head is drawing 107) ([7]; LD50 p.o. mouse, ED50 i.d. guinea-pig): 94; ED50 ([8]; i.d. (intraduodenal)): 15 mg/kg; inhibitory effect on bronchospastic reactions [13]: significant inhibitory effect; ED50 ([9]; i.d. (intraduodenal)): 25 mg/kg
CCn1c(=O)c2c(ncn2CCCCC(O)CO)n(CC)c1=O (stereo not drawn) [Example 2, 1,3-Diethyl-7-(5,6-dihydroxyhexyl)xanthine] | 2 mg/kg | 2 mg/kg | 2 mg/kg | 325 mg/kg | 163 | 
CCCCn1c(=O)n(CCCC(O)CO)c(=O)c2c1ncn2C (stereo not drawn) [Example 7, 3-Butyl-1-(4,5-dihydroxypentyl)-7-methylxanthine] | 3 mg/kg |  | 6.5 mg/kg | > 200 mg/kg | > 42 | 
CCn1c(=O)c2c(ncn2CC)n(CCCCC(O)CO)c1=O (stereo not drawn) [Example 8, 1,7-Diethyl-3-(5,6-dihydroxyhexyl)xanthine] | 6.5 mg/kg | 2 mg/kg | 6.5 mg/kg | > 300 mg/kg | > 60 | 
CCCn1c(=O)n(CCCCC(O)CO)c(=O)c2c1ncn2C (stereo not drawn) [Example 10] | 3 mg/kg | 3 mg/kg | 3 mg/kg | 250 mg/kg | 83 | 
CCCn1c(=O)c2c(ncn2CCC(O)CO)n(CCC)c1=O (stereo not drawn) [Example 12] | 6.5 mg/kg | 10 mg/kg | 10 mg/kg |  |  | LD50 at 168 h ([10]; ip): > 600 mg/kg; ratio of LD50 to ED50 (head is drawing 107) [7, 16]: > 68
CCCn1c(=O)c2c(ncn2CCCC(O)CO)n(CCC)c1=O (stereo not drawn) [Example 13] | 6.5 mg/kg |  | 6.5 mg/kg |  |  | LD50 at 168 h ([10]; ip): 900 mg/kg; ratio of LD50 to ED50 (head is drawing 107) [7, 16]: 138
CCn1c(=O)c2c(ncn2CCCCC(O)CO)n(C)c1=O (stereo not drawn) [Example 17] | 2 mg/kg | 6.5 mg/kg | 6.5 mg/kg | > 300 mg/kg | > 60 | 
CCCn1c(=O)c2c(ncn2CCCCC(O)CO)n(C)c1=O (stereo not drawn) [Example 18] | 6.5 mg/kg | 6.5 mg/kg | 6.5 mg/kg | 300 mg/kg | 46 | 
CCCCn1c(=O)c2c(ncn2CCCCC(O)CO)n(C)c1=O (stereo not drawn) [Example 19] | 2 mg/kg | 3 mg/kg | 2 mg/kg | 147 mg/kg | 63 | 
